The text below walks through data of article PMC3994669 (Cancer cell, 2014).

By EC50 is commonly meant the midpoint of the concentration-response curve.

Read-outs that look alike come from different tables or passages of the source.

In data set [1] the test system is Myc1 mouse G3 MB neurospheres. Description: Dose-response proliferation assay. The data set is classed as cell-based. The settings on record: Mus musculus, 72 h, read-out: EC50 Myc1.
For another data set, the system named is Trp53-null neurospheres. Description: Dose-response proliferation assay on control Trp53-null neurospheres. The data set is classed as cell-based, mouse. The settings on record: Mus musculus, 72 h, read-out: EC50 Trp53-null.
The test system of another data set is H3K27me3. Description: H3K27me3 immunoblotting of Myc1 cell lysates. The settings on record: Myc1, 72 hr; 0.5 μM decitabine, 40 nM pemetrexed. Format: cell-based, mouse. In general terms: A western blot detects proteins with antibodies after separation by electrophoresis.
Data set [2] deals with four additional mouse G3 MB lines. Description: Dose-response on four additional mouse G3 MB lines. The settings on record: four independently derived mouse G3 MB lines. The data set is classed as cell-based.
Another data set deals with SHH MB-derived line. Description: Dose-response on SHH MB-derived line. The data set is classed as cell-based, mouse.
The next data set deals with Myc1 neurospheres. Description: In vitro wash-out experiments on Myc1. The settings on record: Mus musculus. The data set is classed as cell-based.
For data set [3], the system named is TB-12-5950 G3 MB PDX neurospheres. Description: Cell viability of G3 MB PDX TB-12-5950 neurospheres. The data set is classed as cell-based. The settings on record: Homo sapiens, 72 h, read-out: EC50 TB-12-5950.
Data set [4] relates to OA-2012-1 G3 MB PDX neurospheres. Description: Cell viability of G3 MB PDX OA-2012-1 neurospheres. The data set is classed as cell-based. The settings on record: Homo sapiens, 72 h, read-out: EC50 OA-2012-1.
Data set [5] has as its system human neural stem cells H9. Description: Cell viability of human neural stem cells H9. The data set is classed as cell-based. The settings on record: H9, 72 h, read-out: EC50 H9 cells.
Data set [6] is classed as in vivo. The settings on record: murine plasma, single IV injection pemetrexed 200 mg/kg, gemcitabine 60 mg/kg.
Another data set concerns Myc1 mouse G3 MB. Description: Survival of mice with cortical Myc1 G3 MB implants. Format: in vivo.
The next data set has as its system mouse G3 MB tumor cells. Description: Cell death. Format: cell-based. The settings on record: tumor cells in vitro.
For data set [7] the following is noted: mouse, in vivo.
A further data set has as its system Myc2 mouse G3 MB. Description: Survival of mice with Myc2 G3 MB implants. The settings on record: treatment at days 4 and 11; vehicle 11 days.

As for `Nc1nc2[nH]cc(CCc3ccc(C(=O)N[C@@H](CCC(=O)O)C(=O)O)cc3)c2c(=O)[nH]1` [Pemetrexed], the EC50 in data set [1] is 35 nM; in the data set with Trp53-null neurospheres, 15000 nM; with Myc1 neurospheres (read-out: EC50 wash-out, 1 hr drug exposure, read 72 hr after) it was 1200 nM; in the data set on Myc1 neurospheres (read-out: EC50 wash-out, 10 hr drug exposure, read 72 hr after), 500 nM; in the data set with Myc1 neurospheres (read-out: EC50 wash-out, 24 hr drug exposure, read 72 hr after), 180 nM; in [3] it was 160 nM. Also, the EC50 in data set [4] was 100 nM; in data set [5], 290 nM. In addition, in the data set with H3K27me3, the H3K27me3 levels entry is “no effect”. In addition, the “potency and efficacy compared to Myc1” value in data set [2] was “comparable potency and efficacy”. Also, in the data set on SHH MB-derived line, the “sensitivity compared to Myc1” value is “as sensitive to pemetrexed as Myc1”. Also, in data set [6], the “clearance relative to previously published reports” value was “around 2 fold”. Moreover, the “increase in median survival” value in the data set with Myc1 mouse G3 MB (one dose of pemetrexed 200 mg/kg at day 3, vs vehicle) was 3 days; with Myc1 mouse G3 MB (two doses of pemetrexed 200 mg/kg at days 3 and 10, vs vehicle), 7 days. Besides, the “cell death by Annexin V staining” value in the data set on mouse G3 MB tumor cells is on record as “induced cell death”. In data set [7], the tolerability entry is “well tolerated”. The compound further came in with a median survival in the data set on Myc2 mouse G3 MB of 28 days.
